Data on 52 compounds can be found in PubChem BioAssay AID1996.

The structures appear in SMILES notation. Converted amounts (≈) assume the structure as drawn.

The conditions of the series: buffer; pH 7.4; 200.0 µM.
What is called solubility (kinetic) is solubility judged after dilution from a stock solution rather than from solid. Compound `CCC1(C)Cc2ccccc2-c2nc(NCCCO)[nH]c(=O)c21` (configuration not stated) registered a solubility (kinetic) of 0.044 mg/mL (≈ 140 µM). `CCN(CC)c1cc(C)c2cc(NC(=O)c3ccccc3F)ccc2n1` returned a solubility (kinetic) of 0.0107 mg/mL (≈ 30.4 µM).

The compound `OC(CNC1Cc2ccccc2C1)COc1ccc(F)cc1` (configuration not stated) came in with a kinetic solubility of 0.0443 mg/mL (≈ 147 µM). The value for `CN(Cc1cccc([N+](=O)[O-])c1)Cc1cccc2ccccc12` was less than 0.0003 mg/mL; that for `NS(=O)(=O)c1ccc(CCNC(=O)NC2CCCCC2)cc1` was more than 0.0488 mg/mL. The value for `O=C(Nc1ccccc1)Nc1ccc(Oc2cccnc2)nc1` was 0.0205 mg/mL (≈ 66.9 µM); that for `Cc1cc(C)c2sc(N(CCN(C)C)C(=O)c3ccc4ccccc4c3)nc2c1.Cl` was 0.0067 mg/mL.

In turn, `Cc1ccc(S(=O)(=O)N2CCCC(C(=O)NC3CCCC3)C2)cc1` (configuration not stated) showed a solubility (kinetic) of 0.0005 mg/mL (≈ 1.43 µM). Against the preceding compound, the solubility kinetic is about 13-fold lower.

On to `Cc1ccc2ccc(S(=O)(=O)NCc3ccccn3)cc2c1`, for which the kinetic solubility turned out to be 0.007 mg/mL (≈ 22.4 µM). On to `S=C(NCC1CCCO1)c1ccc(Br)cc1` (configuration not stated), for which the solubility (kinetic) turned out to be 0.039 mg/mL (≈ 130 µM). The value for `CN(C)S(=O)(=O)c1cccc(NC(=O)COC(=O)c2ccc3ccccc3n2)c1` was 0.04 mg/mL (≈ 96.7 µM); that for `O=C1CSC(=Nc2ccc(Cl)cc2)N1` was 0.0337 mg/mL (≈ 149 µM); that for `COC(=O)c1ccc(NCC(=O)Nc2cc(C)cc(C)c2)cc1` was 0.0054 mg/mL (≈ 17.3 µM). The value for `CCOc1ccc(S(=O)(=O)NCc2cccnc2)c2ccccc12` was 0.0385 mg/mL (≈ 112 µM); that for `COC(=O)c1cc(COC(=O)c2nc3nc(C)cc(C)n3n2)oc1C` was more than 0.0516 mg/mL. The value for `Cc1noc(C)c1C(=O)Nc1nc(-c2ccc(F)cc2)cs1` was 0.0103 mg/mL (≈ 32.5 µM); that for `CN(C)c1ccc(NC(=O)Cc2ccccc2)c2ccccc12` was 0.0053 mg/mL (≈ 17.4 µM). Regarding `O=C(Nc1cc2c3c(c1)CC(=O)N3CCC2)c1ccco1`, the kinetic solubility was 0.0396 mg/mL (≈ 140 µM).

In turn, `Cc1ccc(OCC(=O)Nc2ccc3oc(=O)ccc3c2)cc1` displayed a kinetic solubility of 0.0017 mg/mL (≈ 5.5 µM).

`O=C1Cc2cc(S(=O)(=O)Nc3ccc(N4CCOCC4)cc3)ccc2N1`: the kinetic solubility was more than 0.056 mg/mL. `COc1ccccc1C1CCN(C(=O)C2CCCCC2)CC1` registered a solubility (kinetic) of 0.0386 mg/mL (≈ 128 µM). The value for `COc1ccccc1N(CC(=O)NC1CCCCC1C)S(=O)(=O)c1cccs1` (configuration not stated) was 0.002 mg/mL (≈ 4.73 µM); that for `Cc1ccc(C(=O)NCc2cccnc2)o1` was more than 0.0324 mg/mL; that for `CCOc1ccc(NC(=O)COc2ccc3c(c2)OCO3)cc1` was 0.0057 mg/mL (≈ 18.1 µM). The value for `Cc1ccnc(NC(=O)CCNC(=O)c2ccc(Cl)cc2)c1` was 0.0149 mg/mL (≈ 46.9 µM); that for `CCC(OC(=O)c1ccco1)C(=O)NCc1ccc(OC)cc1` (configuration not stated) was more than 0.0476 mg/mL. The value for `O=C(COC(=O)COc1ccc(Br)cc1)NC1CCCC1` was 0.0133 mg/mL (≈ 37.3 µM); that for `COc1ccc(-c2noc(CN(C(=O)c3ccoc3C)C(C)C)n2)cc1` was 0.0387 mg/mL (≈ 109 µM). `CN1c2ccccc2C(=O)C(=C2SCCCS2)S1(=O)=O`: the kinetic solubility was determined as 0.027 mg/mL (≈ 82.5 µM). As to `Cc1ccc(-c2nc3ncccc3o2)cc1N`, the solubility (kinetic) was more than 0.0338 mg/mL. Consider `CC(C)OCCCNC(=O)Cc1ccc(Br)cc1`, for which the kinetic solubility is 0.0416 mg/mL (≈ 132 µM).

`Cc1ccc(C(=O)NCCCNC(=O)c2ccccn2)cc1` yielded a solubility (kinetic) of more than 0.0446 mg/mL. In the case of `COc1ccc(C(=O)Nc2cc([N+](=O)[O-])ccc2N2CCCC2)cc1`, the kinetic solubility was 0.0026 mg/mL (≈ 7.62 µM).

`CNC(=O)c1cc(S(=O)(=O)Nc2ccc3c(c2)OCCO3)ccc1C` had a solubility (kinetic) of more than 0.0544 mg/mL. The value for `Cn1c(NNC(=O)c2ccccc2F)cc(=O)n(C)c1=O` was more than 0.0438 mg/mL; that for `S=c1[nH]nc(CSCCOc2ccc(Cl)cc2Cl)o1` was more than 0.0506 mg/mL.

As to `COC(CNC(=O)c1cccnc1)OC`, the solubility (kinetic) amounted to 0.0264 mg/mL (≈ 126 µM). `O=C(O)COCC(=O)NCc1nc(-c2ccc(C(F)(F)F)cc2)no1`: the kinetic solubility was more than 0.0539 mg/mL. The value for `CN(CCOc1ccccc1)CC(O)COCc1ccccc1F` (configuration not stated) was 0.046 mg/mL (≈ 138 µM); that for `CC(C(=O)N(C)C)N1c2cccc3cccc(c23)S1(=O)=O` (configuration not stated) was 0.0199 mg/mL (≈ 65.4 µM); that for `COC(=O)c1cc(S(=O)(=O)Nc2cccc(-c3cnco3)c2)oc1C` was 0.0503 mg/mL (≈ 139 µM).

Take `CC(=O)Nc1cccc(C(=O)OCCCOc2ccc(F)cc2)c1`: the kinetic solubility turned out to be 0.0026 mg/mL (≈ 7.85 µM).

Take `O=C(COc1ccccc1)NC1CCCCCCC1`: the kinetic solubility was 0.0362 mg/mL (≈ 139 µM). The value for `Cc1ccc2[nH]c3c(Cl)ncnc3c2c1` was 0.0133 mg/mL (≈ 61.1 µM); that for `Cc1cccc(/C=C/c2nc3ccccc3c(=O)[nH]2)c1` was 0.0006 mg/mL (≈ 2.29 µM); that for `COC(=O)c1c(-c2ccccc2)noc1C` was 0.0181 mg/mL (≈ 83.3 µM).

`CC(=O)Nc1cc[n+](CC(=O)c2cccc([N+](=O)[O-])c2)cc1.[Cl-]` displayed a kinetic solubility of 0.0403 mg/mL. `COCCSc1ccccc1C(=O)Nc1cc([N+](=O)[O-])ccc1OC`: the solubility (kinetic) turned out to be 0.0041 mg/mL (≈ 11.3 µM). Regarding `CC1(C(=O)O)CCC(C(=O)Nc2cccc(F)c2)C1(C)C` (configuration not stated), the solubility (kinetic) is more than 0.044 mg/mL.

On to `CCCNC(=O)c1noc2c1CCc1cc(OC)ccc1-2`, for which the solubility (kinetic) is 0.0056 mg/mL (≈ 19.6 µM). The value for `Nc1ccccc1Nc1nc2ccccc2[nH]1` was more than 0.0336 mg/mL. The value for `COc1ccc2oc(C(=O)OCC(=O)NC(=O)c3ccccc3)c(C)c2c1` was 0.0045 mg/mL (≈ 12.2 µM).
